Where a name gives a salt, the structure may show the parent alone.
These compounds were tested against T1, human 5-HT6 receptor (Homo sapiens, UniProt P50406) (assay: Human 5-HT6 Receptor Binding Assay ([3H]LSD displacement, scintillation beads)). Conditions: membranes of CHO-K1 cells with recombinant human 5-HT6, 4 nM [3H]LSD; Table 1, class symbols; read-out: h5-HT6 (Ki).
T1 construct: host or cells: CHO-K1 cells, stably transfected; membranes prepared in house
T1 sequence (P50406 whole entry): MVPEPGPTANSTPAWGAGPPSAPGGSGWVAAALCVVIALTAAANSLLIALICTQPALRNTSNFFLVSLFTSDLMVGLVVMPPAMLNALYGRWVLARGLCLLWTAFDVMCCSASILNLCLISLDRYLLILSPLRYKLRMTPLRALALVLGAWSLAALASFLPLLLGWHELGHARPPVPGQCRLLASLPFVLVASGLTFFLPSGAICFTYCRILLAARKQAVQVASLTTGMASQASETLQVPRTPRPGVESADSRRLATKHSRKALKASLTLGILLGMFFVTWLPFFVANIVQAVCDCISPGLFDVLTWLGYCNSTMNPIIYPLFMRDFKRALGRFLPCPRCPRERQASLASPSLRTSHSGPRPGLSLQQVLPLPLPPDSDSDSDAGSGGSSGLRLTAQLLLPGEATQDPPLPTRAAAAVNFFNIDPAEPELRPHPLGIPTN

| SMILES | Ki |
| --- | --- |
| Cc1cc(C)c(S(=O)(=O)Oc2ccc3c(c2)C2CCNCC2O3)c(C)c1 (stereo not shown) [Example 715] | < 500 nM |
| CC1(C)CNC2(CCOC2)c2oc3cc([S+]([O-])c4cncc(Cl)c4)ccc3c21 (stereo not shown) [Example 455] | > 1000 nM |
| O=S(=O)(c1ccc2c(c1)OCCO2)c1ccc2c(c1)OC1CNCCC21 (stereo not shown) [Example 119] | < 500 nM |
| [O-][S+](c1cccc(C(F)(F)F)c1)c1ccc2c3c(oc2c1)C1(CCOCC1)NCC3 (stereo not shown) [Example 297] | < 500 nM |
| [O-][S+](c1cccc(F)c1)c1ccc2c(c1)OC1CNCCC21 (stereo not shown) [Example 625, 7-[(3-Fluorophenyl)sulfinyl]-1,2,3,4,4a,9a-hexahydro[1]benzofuro[2,3-c]pyridine trifluoroacetic acid salt] | < 500 nM |
| CC(=O)N1CCC2c3cc(NS(=O)(=O)c4c(Cl)nc5sccn45)ccc3OC2C1 (stereo not shown) [Example 816] | 500 to 1000 nM |
| CCOc1cccc(S(=O)(=O)c2ccc3c(c2)OC2CNCCC32C)c1 (racemic) [Example 10, 7-[(3-ethoxyphenyl)sulfonyl]-4a-methyl-1,2,3,4,4a,9a-hexahydro[1]benzofuro[2,3-c]pyridine] | < 500 nM |
| COc1ccc(OC)c(S(=O)(=O)Oc2ccc3c(c2)OC2CNCCC32)c1 (stereo not shown) [Example 670] | < 500 nM |
| COCCCOc1cc(OC(C)C)cc(S(=O)(=O)c2ccc3c(c2)OC2CNCCC32)c1 (stereo not shown) [Example 588] | < 500 nM |
| Cc1c(S(=O)(=O)Oc2ccc3c(c2)C2(C)CCNCC2O3)sc2ccc(Cl)cc12 (stereo not shown) [Example 783] | 500 to 1000 nM |
| O=S(=O)(c1ccc2c(c1)OC1CNCCC21)c1cccc(OCC2CCOCC2)c1F (stereo not shown) [Example 482] | < 500 nM |
| [O-][S+](c1ccc2oc3c(c2c1)CCNC3)c1cccnc1Cl (stereo not shown) [Example 445] | > 1000 nM |
| CC(C)Oc1cccc(S(=O)(=O)c2ccc3c(c2)OC2C3CCNC23CCC3)c1 (stereo not shown) [Example 622, 7-{[3-(Propan-2-yloxy)phenyl]sulfonyl}-3,4,4a,9a-tetrahydro-2H-spiro[1-benzofuro[2,3-c]pyridine-1,1′-cyclobutane]hydrochloride] | < 500 nM |
| O=S(=O)(c1ccc2c(c1)C1CCNCC1O2)N1CCN(c2ccccc2)CC1 (stereo not shown) [Example 845] | > 1000 nM |
| O=S(=O)(c1cccnc1)c1ccc2c(c1)OC1CNCCC21 (stereo not shown) [Example 393] | > 1000 nM |
| COc1ccc(S(=O)(=O)c2ccc3c(c2)OC2CNCCC32)cc1F (stereo not shown) [Example 129] | 500 to 1000 nM |
| [O-][S+](c1ccc2c(c1)OC1CNCCC21)c1c(F)c(F)cc(F)c1F (stereo not shown) [Example 144] | > 1000 nM |
| CC(C)c1ccc(S(=O)(=O)Oc2ccc3c(c2)OC2CNCCC32)cc1 (stereo not shown) [Example 794] | < 500 nM |

| SMILES | Ki |
| --- | --- |
| O=S(=O)(Cc1cccc(C(F)(F)F)c1)Oc1ccc2c(c1)C1CCNCC1O2 (stereo not shown) [Example 750] | > 1000 nM |
| COc1ccc(S(=O)(=O)Oc2ccc3c(c2)OC2CNCCC32)cc1 (stereo not shown) [Example 650] | < 500 nM |
| O=[N+]([O-])c1ccc(S(=O)(=O)Oc2ccc3c(c2)OC2CNCCC32)cc1 (stereo not shown) [Example 688] | 500 to 1000 nM |
| O=S(=O)(Nc1ccc2c(c1)C1CCNCC1O2)c1c(Cl)nc2sccn12 (stereo not shown) [Example 818] | < 500 nM |
| O=S(=O)(NCc1ccc(Cl)cc1)c1ccc2c(c1)C1CCNCC1O2 (stereo not shown) [Example 854] | > 1000 nM |
| O=S(=O)(c1ccc2c(c1)OC1CNCCC21)c1ccccc1OCC(F)(F)F (stereo not shown) [Example 408] | < 500 nM |
| O=S(=O)(Oc1ccc2c(c1)OC1CNCCC21)c1c(Cl)cccc1Cl (stereo not shown) [Example 679] | < 500 nM |
| O=S(=O)(Oc1ccc2c(c1)OC1CNCCC21)c1ccc2c(c1)OCCO2 (stereo not shown) [Example 668] | < 500 nM |
| COc1cccc(S(=O)(=O)Oc2ccc3c(c2)OC2CNCCC32)c1 (stereo not shown) [Example 651] | < 500 nM |
| CN1CCC2(C)c3cc(OS(=O)(=O)Cc4ccccc4)ccc3OC2C1 (stereo not shown) [Example 809] | > 1000 nM |
| O=S(=O)(Cc1ccccc1Cl)Oc1ccc2c(c1)C1CCNCC1O2 (stereo not shown) [Example 754] | > 1000 nM |
| O=S(=O)(c1ccc2c(c1)OC1CNCCC21)c1cccnc1OCC(F)(F)F (stereo not shown) [Example 395] | < 500 nM |
| O=S(=O)(Oc1ccc2c(c1)OC1CNCCC21)c1ccc(C(F)(F)F)cc1 (stereo not shown) [Example 673] | < 500 nM |
| COc1cc2c(cc1OC)CN(S(=O)(=O)c1ccc3c(c1)C1CCNCC1O3)CC2 (stereo not shown) [Example 859] | > 1000 nM |
| O=S(=O)(Nc1ccc2c(c1)C1CCNCC1O2)c1cccc(Cl)c1Cl (stereo not shown) [Example 829] | < 500 nM |
| O=S(=O)(c1ccc2c(c1)OC1CNCCC21)c1cc(F)cc(F)c1F (stereo not shown) [Example 400] | < 500 nM |
| CC(C)(C)c1ccc(S(=O)(=O)Oc2ccc3c(c2)OC2CNCCC32)cc1 (stereo not shown) [Example 666] | < 500 nM |

Continued, values first:

| Ki | SMILES |
| --- | --- |
| < 500 nM | N#Cc1ccc(COc2cccc(S(=O)(=O)c3ccc4c(c3)OC3CNCCC43)c2)cc1 (stereo not shown) [Example 551] |
| < 500 nM | CCCOc1cccc(S(=O)(=O)c2ccc3c(c2)OC2CNCCC32)c1 (stereo not shown) [Example 572] |
| < 500 nM | O=S(=O)(c1cccc(C(F)(F)F)c1)c1ccc2c(c1)OC1CNCCC21 (stereo not shown) [Example 161, 7-{[3-(trifluoromethyl)phenyl]sulfonyl}-1,2,3,4,4a,9a-hexahydro[1]benzofuro[2,3-c]pyridine] |
| < 500 nM | O=S(=O)(c1ccc(Cl)c(Cl)c1)c1ccc2oc3c(c2c1)CCNC3 [Example 261, 6-[(3,4-dichlorophenyl)sulfonyl]-1,2,3,4-tetrahydro[1]benzofuro[2,3-c]pyridine] |
| < 500 nM | O=S(=O)(c1cccc(Cl)c1)c1ccc2c3c(oc2c1)CN(Cc1ccccc1)CC3 [Example 603] |
| < 500 nM | O=S(=O)(c1cc(F)cc(F)c1)c1ccc2c3c(oc2c1)C1(CCOC1)NCC3 (stereo not shown) [Example 305] |
| < 500 nM | O=S(=O)(c1cccc(Cl)c1)c1ccc2c3c(oc2c1)C1CCCCN1CC3 (stereo not shown) [Example 620] |
| < 500 nM | O=S(=O)(c1cccc(Cl)c1)c1ccc2c3c(oc2c1)CN(CCCO)CC3 [Example 601] |
| < 500 nM | O=S(=O)(c1cccc(C(F)(F)F)c1)c1ccc2c3c(oc2c1)C1(CCOC1)NCC3 (stereo not shown) [Example 307] |
| < 500 nM | Cc1ccc(F)cc1S(=O)(=O)c1ccc2oc3c(c2c1)CCNC3 [Example 254] |
| > 1000 nM | O=S(=O)(Oc1ccc2c(c1)C1CCNCC1O2)c1ccc(Oc2ccccc2)nc1 (stereo not shown) [Example 746] |
| < 500 nM | O=S(=O)(c1cccc(F)c1)c1ccc2c3c(oc2c1)C1CCCCN1CC3 (stereo not shown) [Example 617] |
| 500 to 1000 nM | O=S(=O)(c1cccc(F)c1)c1ccc2c(c1)C1CCNCC1O2 (stereo not shown) [Example 168] |
| < 500 nM | O=S(=O)(c1ccc2ccccc2c1)c1ccc2oc3c(c2c1)CCNC3 [Example 251] |
| < 500 nM | O=S(=O)(c1ccccc1)c1ccc2c3c(oc2c1)[C@@]1(CCOC1)NCC3 (single isomer, unassigned) [Example 108] |
| < 500 nM | O=S(=O)(c1cccc(F)c1)c1ccc2c3c(oc2c1)C1(CCOCC1)NCC3 [Example 43, 7-[(3-fluorophenyl)sulfonyl]-2′,3,3′,4,5′,6′-hexahydro-2H-spiro[1-benzofuro[2,3-c]pyridine-1,4′-pyran]] |
| < 500 nM | COc1cncc(S(=O)(=O)c2ccc3c4c(oc3c2)C(C)(C)NCC4)c1 [Example 370] |
| < 500 nM | O=S(=O)(c1cc(F)cc(Cl)c1)c1ccc2oc3c(c2c1)CCNC3 [Example 255] |
| < 500 nM | CC(C)Oc1cccc(S(=O)(=O)c2ccc3c4c(oc3c2)C(C)(C(F)F)NCC4)c1 (single isomer, unassigned) [Example 34, 1-(difluoromethyl)-1-methyl-7-{[3-(propan-2-yloxy)phenyl]sulfonyl}-1,2,3,4-tetrahydro[1]benzofuro[2,3-c]pyridine] |

| Ki | SMILES |
| --- | --- |
| < 500 nM | O=S(=O)(Oc1ccc2c(c1)C1CCNCC1O2)c1ccc(-c2ccccc2)cc1 (stereo not shown) [Example 743] |
| < 500 nM | O=S(=O)(c1ccc2c(c1)OC1CNCCC21)c1ccc2ccccc2c1 (stereo not shown) [Example 122] |
| < 500 nM | O=S(=O)(c1cccc(C(F)(F)F)c1)c1ccc2c3c(oc2c1)C1(CCOCC1)NCC3 [Example 298] |
| < 500 nM | Nc1cccc(S(=O)(=O)c2ccc3oc4c(c3c2)CCNC4)c1 [Example 349] |
| < 500 nM | [O-][S+](c1ccc2c3c(oc2c1)CNCC3)c1cc(Cl)ccc1Cl (stereo not shown) [Example 214] |
| < 500 nM | O=S(=O)(c1cc(F)cc(F)c1)c1ccc2oc3c(c2c1)CCNC3 [Example 256] |
| 500 to 1000 nM | O=S(=O)(c1ccccc1)c1ccc2c3c(oc2c1)CN(Cc1ccccc1)CC3 [Example 597] |
| < 500 nM | Cc1cc(S(=O)(=O)c2ccc3c4c(oc3c2)CNCC4)ccc1F [Example 218] |
| < 500 nM | CC1(C)CNC2(CCOC2)c2oc3cc(S(=O)(=O)c4ccccc4)ccc3c21 (stereo not shown) [Example 295] |
| < 500 nM | O=S(=O)(c1cccc(F)c1)c1ccc2c3c(oc2c1)C1(CCOC1)NCC3 (single isomer, unassigned) [Example 53, 7-[(3-fluorophenyl)sulfonyl]-3,4,4′,5′-tetrahydro-2H-spiro[1-benzofuro[2,3-c]pyridine-1,3′-furan]] |
| < 500 nM | Cc1cccc(S(=O)(=O)c2ccc3oc4c(c3c2)CCNC4)n1 [Example 350] |
| 500 to 1000 nM | O=S(=O)(c1ccccc1)c1ccc2c(c1)C1CCNCC1O2 (stereo not shown) [Example 334, 6-(phenylsulfonyl)-1,2,3,4,4a,9a-hexahydro[1]benzofuro[2,3-c]pyridine] |
| < 500 nM | O=S(=O)(c1cccc(Cl)c1)c1ccc2c(c1)OC1CNCCC21 (stereo not shown) [Example 112] |
| < 500 nM | O=S(=O)(Oc1ccc2c(c1)C1CCNCC1O2)c1cccc(Cl)c1 (stereo not shown) [Example 710] |
| > 1000 nM | O=S(=O)(Cc1cccc(Cl)c1)Oc1ccc2c(c1)C1CCNCC1O2 (stereo not shown) [Example 752] |
| < 500 nM | O=S(=O)(c1cccc(F)c1)c1ccc2oc3c(c2c1)CCNC3CCBr (stereo not shown) [Example 514] |
| < 500 nM | O=S(=O)(c1cccc(Oc2ccccn2)c1)c1ccc2c(c1)OC1CNCCC21 (stereo not shown) [Example 579] |
| < 500 nM | COc1cccc(S(=O)(=O)c2ccc3c4c(oc3c2)C(C)(C)NCC4)c1 [Example 16, 7-[(3-methoxyphenyl)sulfonyl]-1,1-dimethyl-1,2,3,4-tetrahydro[1]benzofuro[2,3-c]pyridine] |

Same assay, conditions: membranes of CHO-K1 cells with recombinant human 5-HT6, 4 nM [3H]LSD; specific data; read-out: h5-HT6 (Ki)

| Ki | SMILES |
| --- | --- |
| 44 nM | O=S(=O)(c1cccc(C(F)(F)F)c1)c1ccc2c(c1)OC1CNCCC21 (stereo not shown) [Example 161, 7-{[3-(trifluoromethyl)phenyl]sulfonyl}-1,2,3,4,4a,9a-hexahydro[1]benzofuro[2,3-c]pyridine] |

Reference: patent US8765779B2, “Tricyclic derivatives and their pharmaceutical use and compositions” (Cephalon, Inc., priority 2009, dated 2014)
